Test results published in US12331048B2, “Pyrido-[3,4-d]pyridazine amine derivatives useful as NLRP3 inhibitors” (Ventus Therapeutics U.S., Inc., priority 2022, dated 2025).
≈ marks a conversion by molar mass, not a printed value. Read-outs that look alike come from different tables or passages of the source.

Assays:
NLRP3 = target: T1, NLRP3 (Homo sapiens, UniProt Q96P20); assay: Human whole blood (hWB) NLRP3 assay; type: cell-based; conditions: LPS priming 1 μg/ml, ATP activation, read-out: hWB IC50 (raw activity data)
T1 construct: endogenous in cells
Description: Heparin lithium coated tubes were used to collect blood from volunteers. Blood samples were distributed on 96 well plates using 90 μl per well. Priming was performed by adding 5 μl of LPS (O26:B6; Sigma L-2654) at a final concentration of 1 μg/ml for 4.5 hours in a humidified incubator with 37° C., 5% CO2. Thirty minutes prior to NLRP3 activation, 5 μl of a 20× compound solution or vehicle (2% DMSO) was added to each well and plates were incubated on a shaker (450 rpm) in a humidified incubator with 37° C., 5% CO2. Activation was then performed by adding 3.3 μl of a 31×ATP solution per well. At the end of the 30 minutes stimulation, the plates were centrifuged (800 g, 10 min. room temperature) and the plasma from each well was frozen at −80° C. […] levels in the supernatant were analyzed using a mesoscale discovery assay (MSD K151TUK) according to the manufacturers' instructions. Human whole blood was drawn from healthy volunteers after obtaining written informed consent.
Table D assigns each compound a code for potency in the human whole blood (hWB) NLRP3 Assay: A or B. According to the code. […] The corresponding raw activity data is also included.

[1] = Brain levels (kp and kpu,u) after oral administration; type: in vivo, CDI mice; conditions: mice, 20 mpk PO; for Kp at 24 h / Kpu,u (unbound brain-to-plasma ratio): CDI, mouse, brain / plasma, po, 20 mg/kg
Description: The in vivo total brain to plasma ratio was assessed in CDI mice after oral administration of the compound. Blood was collected at several timepoints up to 24 h, and transferred into plastic micro centrifuge tubes with EDTA-K2 as anticoagulant. Blood samples were centrifuged at 4000 g for 5 minutes at 4° C. to obtain plasma, then immediately frozen and stored at −75±15° C. prior to analysis. Animals were terminally anaesthetized with a rising concentration of CO2 gas at about 1 minute. At selected timepoints, whole brains were removed from the skull, rinsed in cold PBS to remove blood, dried with clean gauze, then frozen in liquid nitrogen and kept at −75±15° C. before analysis. At the time of analysis, brain samples were homogenized with PBS by tissue weight (g) to PBS volume (mL) ratio 1:3. Plasma and brain drug levels were quantified by LC/MS/MS on a AB Sciex Triple Quad 5500+ instrument, after separation on a HALO 160A ES-C18, 2.7 μm 2.1-50 mm column. Quantitation was performed using a calibration curve prepared in blank plasma or blank brain homogenate. The software WinNonlin (Phoenix™) was used for pharmacokinetic analysis from the concentrations versus time data, including the AUCinf and AUClast. The Kp ratio (total brain concentration over total plasma concentration) was calculated as (AUCtot,br)/(AUCtot,pl).
The unbound brain exposure was assessed as Kpuu, which is the free brain/free plasma concentration ratio (Cu,br/Cu,pl). The Cu,br/Cu,pl ratios were obtained from in vivo total brain to plasma ratios (Ctot,br/Ctot,pl) by using in vitro determined Fu,br and Fu,pl.
Plasma protein binding and brain homogenate protein binding were measured by equilibrium dialysis in a HTDialysis plate. The dialysis membranes were soaked in ultrapure water for 60 minutes to separate strips, then in 20% ethanol for 20 minutes, finally in dialysis buffer for 20 minutes. The dialysis set up was assembled according to the manufacturer's instruction. Each cell received 150 μL of plasma or brain homogenate spiked with 1 mM of compound, and dialyzed against an equal volume of dialysis buffer (PBS). The dialysis plate was sealed and incubated in an incubator at 37° C. with 5% CO2 at 100 rpm for 6 hours. At the end of incubation, compound concentration was measured in both chambers by LC-MS/MS on a Triple Quad™ 5500 from AB Inc after separation on a XSelect Hss T3 2.5μ (2.1×30 mm) column. Free fraction (Fu) was calculated as (Peak Area Ratio buffer chamber/Peak Area Ratio plasma chamber).
Kpuu was calculated as (AUCtot,br×Fu,br)/(AUCtot,pl×Fu,pl).
The below table also assigns each compound a code for kp and kpu,u values: A or B. According to the code. A represents a value of >0.3 and B represents a value of ≤0.3. […] The kpu,u was then calculated upon correcting this kp value with mouse plasma protein binding and mouse brain homogenates binding. A Kpu,u value >0.3 is brain penetrant, and Kpu,u value less than or equal to 0.3 is not brain penetrant. N.D.=not determined. The corresponding raw kp and kpu,u data is also included.

[2] = Solubility in phosphate buffered solution (PBS, pH 7.4); type: physicochemical; conditions: for solubility at 2 h: phosphate buffered solution (PBS), aqueous buffer, kinetic from dmso stock; for increase in solubility (PBS, pH 7.4) compared to Comparative Example 3: relative to Comparative Example 3 (6.7 uM)
Description: In additional embodiments, the solubility of compounds of the instant disclosure may be determined following known procedures, such as described in Alsenz and Kansy, Advanced Drug Delivery Reviews (2007) 59:546-567, and Wang et al. J Mass Spectrom. (2000) 35:71-76. For example, the kinetic solubility in physiologically relevant media, such as phosphate buffered solution (PBS, pH 7.4) or simulated gastric fluid (SGF), may be measured using serial dilution and two hour incubation period, followed by filtration, and reported in μM by LC-MS/MS. Thermodynamic solubility in physiologically relevant media may be measured by LC-MS/MS, after a twenty-four hour incubation, followed by filtration, and reported in mg/mL. Optimized solubility may be beneficial for manufacturing and further processing of the compound. Furthermore, optimized solubility allows for a more efficient in vitro analysis of the compound, including data collection around the compound's safety, drug-drug interactions, potency, selectivity, metabolism, and permeability. […]

[3] = whole brain AUC over 24 h divided by plasma AUC, read-out: kp (code)
[4] = whole brain AUC over 24 h divided by plasma AUC, read-out: kp (raw)
[5] = kp corrected with mouse plasma protein binding and mouse brain homogenate binding

T1 sequence (Q96P20 whole entry): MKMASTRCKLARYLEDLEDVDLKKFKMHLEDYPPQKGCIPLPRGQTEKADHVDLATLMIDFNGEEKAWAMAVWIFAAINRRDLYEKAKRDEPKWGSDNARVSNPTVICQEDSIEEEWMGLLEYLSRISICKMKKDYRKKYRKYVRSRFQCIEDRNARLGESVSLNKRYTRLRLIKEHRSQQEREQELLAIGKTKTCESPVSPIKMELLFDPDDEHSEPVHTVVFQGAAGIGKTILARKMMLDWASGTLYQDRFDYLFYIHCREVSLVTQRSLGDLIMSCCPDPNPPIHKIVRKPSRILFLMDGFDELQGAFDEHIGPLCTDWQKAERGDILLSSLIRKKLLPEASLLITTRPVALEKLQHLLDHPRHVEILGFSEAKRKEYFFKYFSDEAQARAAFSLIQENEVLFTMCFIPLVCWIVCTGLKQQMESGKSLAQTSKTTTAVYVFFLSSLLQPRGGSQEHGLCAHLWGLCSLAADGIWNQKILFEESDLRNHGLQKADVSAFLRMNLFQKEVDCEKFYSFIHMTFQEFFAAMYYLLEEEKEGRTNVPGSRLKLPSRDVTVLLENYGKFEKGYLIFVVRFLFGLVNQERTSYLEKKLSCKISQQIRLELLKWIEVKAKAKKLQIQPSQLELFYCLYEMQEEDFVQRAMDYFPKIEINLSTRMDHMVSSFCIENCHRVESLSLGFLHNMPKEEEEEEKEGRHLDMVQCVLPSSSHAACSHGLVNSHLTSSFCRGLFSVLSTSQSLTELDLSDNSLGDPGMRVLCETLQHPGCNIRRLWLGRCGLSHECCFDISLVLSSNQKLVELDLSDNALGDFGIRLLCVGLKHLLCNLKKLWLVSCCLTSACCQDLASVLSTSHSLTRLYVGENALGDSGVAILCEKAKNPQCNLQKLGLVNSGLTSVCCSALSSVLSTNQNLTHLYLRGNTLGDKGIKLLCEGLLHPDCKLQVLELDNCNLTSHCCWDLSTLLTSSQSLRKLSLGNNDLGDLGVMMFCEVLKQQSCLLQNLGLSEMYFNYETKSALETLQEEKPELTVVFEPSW

SMILES	IC50 (NLRP3)	Kp at 24 h [1, 3]	Kp at 24 h [1, 4]	Kpu,u (unbound brain-to-plasma ratio) [1, 5]	kpu,u (code) [1, 5]	solubility at 2 h [2]	increase in solubility (PBS, pH 7.4) compared to Comparative Example 3 [2]	kpu,u (raw) [1, 5]	kp (code) ([1]; whole brain AUC over 24 h divided by plasma AUC)
CC1(C)C[C@@H](Nc2nnc(-c3ccc(OC(F)F)cc3O)c3ccncc23)CO1 (single isomer, unassigned) [Compound 9B*]	61 nM	≤ 0.3	0.24	0.52	A (A represents a value of >0.3)	45 µM (≈ 18.1 µg/mL)	7 fold	–	–
Cc1cc(O)c(-c2nnc(N[C@H]3COC(C)(C)C3)c3cnccc23)c(F)c1 (single isomer, unassigned) [Compound 21*]	460 nM	> 0.3	0.3	0.76	A (A represents a value of >0.3)	250 µM (≈ 92.1 µg/mL)	37 fold	–	–
Cc1cc(O)c(-c2nnc(N[C@H]3COC(C)(C)C3)c3cnccc23)c(Cl)c1 (single isomer, unassigned) [Compound 26*]	900 nM	≤ 0.3	0.1	0.17	B (B represents a value of ≤0.3)	280 µM (≈ 108 µg/mL)	42 fold	–	–
Cc1ccc(-c2nnc(N[C@H]3COC(C)(C)C3)c3cnccc23)c(O)c1 [Compound 5, (R)-2-(4-((5,5-dimethyltetrahydrofuran-3-yl)amino)pyrido[3,4-d]pyridazin-1-yl)-5-methylphenol]	220 nM	> 0.3	0.44	0.94	A (A represents a value of >0.3)	180 µM (≈ 63.1 µg/mL)	27 fold	–	–
CC1(C)C[C@@H](Nc2nnc(-c3ccc(Cl)cc3O)c3ccncc23)CO1 [Comparative Example 3, (R)-5-chloro-2-(4-((5,5-dimethyltetrahydrofuran-3-yl)amino)pyrido[3,4-d]pyridazin-1-yl)phenol, reference compound]	–	> 0.3	0.4	–	A (A represents a value of >0.3)	6.7 µM (≈ 2.48 µg/mL)	–	0.43	–
CC1(C)C[C@H](Nc2nnc(-c3ccc(OC(F)F)cc3O)c3ccncc23)CO1 (single isomer, unassigned) [Compound 9*]	260 nM	> 0.3	0.4	0.63	A (A represents a value of >0.3)	45 µM (≈ 18.1 µg/mL)	7 fold	–	A (A represents a value of >0.3)
CC1(C)C[C@@H](Nc2nnc(-c3ccc(C(F)F)cc3O)c3ccncc23)CCO1 (single isomer, unassigned) [Compound 16*]	1800 nM	> 0.3	0.48	0.59	A (A represents a value of >0.3)	–	–	–	–

Continued by falling IC50 (NLRP3), values first:

IC50 (NLRP3)	Kp at 24 h [1, 3]	Kp at 24 h [1, 4]	Kpu,u (unbound brain-to-plasma ratio) [1, 5]	kpu,u (code) [1, 5]	solubility at 2 h [2]	increase in solubility (PBS, pH 7.4) compared to Comparative Example 3 [2]	kpu,u (raw) [1, 5]	kp (code) ([1]; whole brain AUC over 24 h divided by plasma AUC)	SMILES
1200 nM	> 0.3	0.83	2.2	A (A represents a value of >0.3)	–	–	–	–	CC1(C)COCC[C@@H]1Nc1nnc(-c2ccc(C(F)(F)F)cc2O)c2ccncc12 (single isomer, unassigned) [Compound 15]
960 nM	> 0.3	1.1	0.34	A (A represents a value of >0.3)	–	–	–	–	CC1(C)OCC[C@H]1Nc1nnc(-c2ccc(C(F)(F)F)cc2O)c2ccncc12 (single isomer, unassigned) [Compound 22]
890 nM	> 0.3	0.68	0.47	A (A represents a value of >0.3)	–	–	–	–	C[C@H]1COCC[C@H]1Nc1nnc(-c2ccc(Cl)cc2O)c2ccncc12 (single isomer, unassigned) [Compound 18*]
820 nM	> 0.3	0.33	1.3	A (A represents a value of >0.3)	–	–	–	–	Cc1ccc(-c2nnc(N[C@H]3COC(C)(C)C3)c3cnccc23)c(O)c1F (single isomer, unassigned) [Compound 12]
660 nM	> 0.3	0.81	0.89	A (A represents a value of >0.3)	–	–	–	–	CC1(C)C[C@@H](Nc2nnc(-c3ccc(Cl)cc3O)c3ccncc23)CCO1 (single isomer, unassigned) [Compound 4*]
330 nM	≤ 0.3	0.05	–	–	290 µM (≈ 106 µg/mL)	43 fold	–	–	Cc1cc(C)c(-c2nnc(N[C@H]3COC(C)(C)C3)c3cnccc23)c(O)c1 (single isomer, unassigned) [Compound 24*]
120 nM	≤ 0.3	0.24	0.33	A (A represents a value of >0.3)	–	–	–	–	CC1(C)C[C@@H](Nc2nnc(-c3ccc(C(F)F)cc3O)c3ccncc23)CO1 (single isomer, unassigned) [Compound 23]
